Square brackets hold non-standard residues; d marks the D form. Ends that are not written are not given here. pGlu = O=C1CC[C@@H](C(=O)O)N1
How the values were obtained:
[1] = system: panelists (salt perception); test: Return to Baseline Protocol (saltiness aftertaste, sensory panel); type: in vivo, human; conditions: salt reference re-tasted at 1 minute intervals until intensity 5.0
Experimental: After evaluating the sample for salt and other perceptions (step 3 above), each panelist re-tasted the salt reference (5.0 intensity) at 1 minute intervals until their perception of the saltiness intensity of the reference returned to 5.0. Each panelist recorded salt intensity at each interval and took qualitative notes on other perceptions seen in aftertaste.

[2] = system: panelists (salt perception); test: Increased Salt Perception Protocol (descriptive sensory panel); type: in vivo, human; conditions: for Mean salt perception in mouth: scale anchored to 0.35% salt reference = 5.0; for Mean salt perception after expectoration: re-tasting of salt reference (0.35% salt, intensity 5.0)
Experimental: Descriptive Profiles (Flavor and Chemical Feeling Factors) of five use levels of a pGlu-Val-Leu flavor composition were determined. The five use levels were as follows:
Data was collected for the flavor and chemical feeling factors of the product in mouth for each of the five use levels according to the following protocol:
1. Each panelist tasted a salt reference (0.35% salt solution) with a reference salt intensity of 5.0 which provided a baseline for each panelist's Sensory Spectrum for salt intensity.
2. Each panelist tasted a test sample (0.1 ppb, 0.5 ppb, 1.0 ppb, 10.0 ppb or 40.0 ppb all in 0.2% NaCl solution). Only one sample was tasted per session.
3. Each panelist re-tasted the salt reference (5.0 intensity) and rated it for salt intensity as well as any other basic taste, chemical feeling factor, or aromatic perceived. Thus, any increased salt perception as a result of the test sample would be determined, as well as any other perceptions present. Return to Baseline Protocol
The test samples were formulated as follows: […]

[pGlu]-Val-Leu
Mean time needed to return to baseline ([1]; 0.1 ppb sample): 7.6 min | Mean time needed to return to baseline ([1]; 0.5 ppb sample): 9.5 min | Mean time needed to return to baseline ([1]; 1.0 ppb sample): 8.7 min | Mean time needed to return to baseline ([1]; 10.0 ppb sample): 8.6 min | Mean salt perception in mouth ([2]; 0.1 ppb peptide in 0.2% NaCl solution): 2.3 | Mean salt perception after expectoration ([2]; 0.1 ppb sample): 6.8 | perception of salt in-mouth as concentration increased ([2]; 0.1 to 40.0 ppb in 0.2% NaCl solution): did not significantly increase | Mean salt perception in mouth ([2]; 0.5 ppb peptide in 0.2% NaCl solution): 2.8 | Mean salt perception after expectoration ([2]; 0.5 ppb sample): 6.4 | Mean salt perception in mouth ([2]; 1.0 ppb peptide in 0.2% NaCl solution): 2.3 | Mean salt perception after expectoration ([2]; 1.0 ppb sample): 7.5 | Mean salt perception in mouth ([2]; 10.0 ppb peptide in 0.2% NaCl solution): 3.1 | Mean salt perception after expectoration ([2]; 10.0 ppb sample): 8.2 | Mean salt perception in mouth ([2]; 40.0 ppb peptide in 0.2% NaCl solution): 2.8 | Mean salt perception after expectoration ([2]; 40.0 ppb sample): 8.3 | Salt perception after expectoration ([2]; all samples (0.1 to 40.0 ppb), versus reference intensity 5.0): increased

Reference: patent publication US10834946B2, “Flavor composition and edible compositions containing same” (Mars, Incorporated, priority 2013, dated 2020)
